# Data from ChEMBL document CHEMBL3638596, “Protease inhibitors” (2014).
# What was measured:
# Cathepsin K = biological target: T1, Cathepsin K (Homo sapiens, UniProt P43235); assay: Enzyme Assay: Standard assay conditions for the determination of kinetic constants used a fluorogenic peptide substrate, typically H-D-Ala-Leu-Lys-AMC, and were determined in either 100 mM Mes/Tris, pH 7.0 containing 1 mM EDTA and 10 mM 2-mercaptoethanol or 100 mM Na phosphate, imM EDTA, 0.1% PEG4000 pH 6.5 or 100 mM Na acetate, pH 5.5 containing 5 mM EDTA and 20 mM cysteine, in each case optionally with […] as stabiliser. The enzyme concentration used was 5 nM. The stock substrate solution was prepared at 10 mM in DMSO. Screens were carried out at a fixed substrate concentration of 60 μM and detailed kinetic studies with doubling dilutions of substrate from 250 μM. The total DMSO concentration in the assay was kept below 3%. All assays were conducted at ambient temperature. Product fluorescence (excitation at 390 nm, emission at 460 nm) was monitored with a Labsystems Fluoroskan Ascent fluorescent plate reader.
# T1 sequence (P43235 whole entry): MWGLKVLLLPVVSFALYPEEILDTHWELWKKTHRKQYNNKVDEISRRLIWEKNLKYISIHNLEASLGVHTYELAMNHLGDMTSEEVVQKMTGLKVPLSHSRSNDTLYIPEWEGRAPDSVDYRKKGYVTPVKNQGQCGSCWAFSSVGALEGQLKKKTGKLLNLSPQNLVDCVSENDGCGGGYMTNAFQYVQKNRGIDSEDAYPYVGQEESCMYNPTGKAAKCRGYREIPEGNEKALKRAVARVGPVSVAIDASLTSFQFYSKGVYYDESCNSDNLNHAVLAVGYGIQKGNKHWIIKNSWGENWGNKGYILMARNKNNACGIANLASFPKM
# Cathepsin S = Cathepsin S (Homo sapiens, UniProt P25774); assay: Enzyme Assay: The assay uses baculovirus-expressed human cathepsin S and the boc-Val-Leu-Lys-AMC fluorescent substrate available from Bachem in a 384 well plate format, in which 7 test compounds can be tested in parallel with a positive control comprising a known cathepsin S inhibitor comparator. […] 2 μl of each 10 mM test compound is added to a separate well on row A, columns 1-10. Add 90 μl assay buffer containing 1 mM DTT and 2 nM cathepsin S to each well of rows B-H and 180 μl to row A.
# Cathepsin S, sequence (P25774 whole entry): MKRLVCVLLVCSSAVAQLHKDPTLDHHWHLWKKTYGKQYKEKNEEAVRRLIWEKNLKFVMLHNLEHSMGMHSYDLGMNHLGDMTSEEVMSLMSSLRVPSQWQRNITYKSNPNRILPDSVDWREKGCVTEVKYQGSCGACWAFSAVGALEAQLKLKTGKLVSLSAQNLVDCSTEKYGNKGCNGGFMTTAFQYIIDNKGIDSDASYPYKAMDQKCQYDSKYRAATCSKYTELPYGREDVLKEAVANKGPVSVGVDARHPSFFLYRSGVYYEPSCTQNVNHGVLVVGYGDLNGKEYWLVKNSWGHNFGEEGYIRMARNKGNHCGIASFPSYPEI
smiles,measurement,setting,value
C#C[C@@H]1CN(C(=O)[C@@H](NC(=O)c2ccc(-c3nc(N4CCN(C)CC4)sc3F)cc2)C2CCCC2)[C@@H]2C(=O)CO[C@H]12,Ki,Cathepsin K,0.6 nM
same,Ki,Cathepsin S,2900 nM
